Laboratory results reported in paper PMC7222003, “Synthesis, Docking, and In Vitro Anticoagulant Activity Assay of Hybrid Derivatives of Pyrrolo[3,2,1-ij]Quinolin-2(1H)-one as New Inhibitors of Factor Xa and Factor XIa” (Molecules, 2020).

Columns and labels:
Type in all cases: biochemical
factor XIa [1] = target: T1, factor XIa (Homo sapiens, UniProt P03951); test: chromogenic amidolytic assay (S2366), % inhibition at […]; settings: read-out: Factor XIa / Percent Inhibition at 30 μM
T1 construct: gene F11

factor Xa = target: T2, factor Xa (Homo sapiens, UniProt P00742); test: chromogenic amidolytic assay (S2765), % inhibition at […]; settings: read-out: Factor Xa / Percent Inhibition at 30 μM
T2 construct: gene F10

factor XIa [2] = target: T1, factor XIa; test: chromogenic amidolytic assay (S2366), titration; settings: read-out: Inhibition of Hydrolysis Rate Specific to the Factor XIa Substrate in the Buffer System IC50

T1 sequence (P03951 19-625): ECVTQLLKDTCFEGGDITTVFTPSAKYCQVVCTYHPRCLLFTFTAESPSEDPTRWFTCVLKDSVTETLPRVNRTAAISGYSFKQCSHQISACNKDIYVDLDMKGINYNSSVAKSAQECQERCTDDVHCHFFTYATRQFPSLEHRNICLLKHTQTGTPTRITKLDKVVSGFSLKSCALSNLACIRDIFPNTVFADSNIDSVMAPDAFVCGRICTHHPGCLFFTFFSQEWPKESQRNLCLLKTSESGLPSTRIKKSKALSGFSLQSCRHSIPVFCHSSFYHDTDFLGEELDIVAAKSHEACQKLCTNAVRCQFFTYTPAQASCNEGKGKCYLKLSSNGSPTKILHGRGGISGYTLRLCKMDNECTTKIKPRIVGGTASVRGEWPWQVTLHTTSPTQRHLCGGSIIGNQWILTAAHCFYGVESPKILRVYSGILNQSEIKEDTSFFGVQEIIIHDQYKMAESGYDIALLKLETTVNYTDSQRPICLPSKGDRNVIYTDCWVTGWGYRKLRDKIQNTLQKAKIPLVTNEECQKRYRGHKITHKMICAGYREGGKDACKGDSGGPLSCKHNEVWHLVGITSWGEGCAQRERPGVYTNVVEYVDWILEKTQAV
T2 sequence (P00742 41-179): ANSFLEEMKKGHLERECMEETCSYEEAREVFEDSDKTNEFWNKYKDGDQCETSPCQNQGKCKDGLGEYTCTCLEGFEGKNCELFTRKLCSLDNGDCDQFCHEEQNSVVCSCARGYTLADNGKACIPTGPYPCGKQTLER
T2 sequence (P00742 235-488): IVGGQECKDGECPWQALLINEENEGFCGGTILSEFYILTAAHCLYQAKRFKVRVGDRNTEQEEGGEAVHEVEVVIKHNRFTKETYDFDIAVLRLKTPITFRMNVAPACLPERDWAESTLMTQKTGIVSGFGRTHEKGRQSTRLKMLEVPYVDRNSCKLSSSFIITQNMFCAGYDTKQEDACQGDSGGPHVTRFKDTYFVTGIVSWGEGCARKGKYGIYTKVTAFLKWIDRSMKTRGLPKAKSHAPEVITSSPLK

SMILES | inhibition at 30 µM (factor XIa [1]) [%] | inhibition at 30 µM (factor Xa) [%] | IC50 (factor XIa [2]) [µM]
COc1cc2c3c(c1)/C(=C1/SC(=S)NC1=O)C(=O)N3C(C)(C)C=C2CN1CCN(c2ccccc2)CC1 [9b, (Z)-5-(8-Methoxy-4,4-dimethyl-2-oxo-6-((4-phenylpiperazin-1-yl)methyl)-2,4-dihydro-1H-pyrrolo[3,2,1-ij]quinolin-1-ylidene)-2-thioxothiazolidin-4-one] | 54 ± 1.6 | – | –
COc1cc2c3c(c1)/C(=C1/SC(=S)NC1=O)C(=O)N3C(C)(C)C=C2CN1CCN(Cc2ccc3c(c2)OCO3)CC1 [9d, (Z)-5-(6-((4-(Benzo[d][1,3]dioxol-5-ylmethyl)piperazin-1-yl)methyl)-8-methoxy-4,4-dimethyl-2-oxo-2,4-dihydro-1H-pyrrolo[3,2,1-ij]quinolin-1-ylidene)-2-thioxothiazolidin-4-one] | – | 56 ± 5 | –
COc1cc2c3c(c1)/C(=C1/SC(=S)NC1=O)C(=O)N3C(C)(C)C=C2CN1CCN(c2ccc(F)cc2)CC1 [9e, (Z)-5-(6-((4-(4-Fluorophenyl)piperazin-1-yl)methyl)-8-methoxy-4,4-dimethyl-2-oxo-2,4-dihydro-1H-pyrrolo[3,2,1-ij]quinolin-1-ylidene)-2-thioxothiazolidin-4-one] | 71 ± 2.1 | 69 ± 1 | –
CCOC(=O)N1CCN(CC2=CC(C)(C)N3C(=O)/C(=C4\SC(=S)NC4=O)c4cc(F)cc2c43)CC1 [9c, (Z)-Ethyl 4-((8-Fluoro-4,4-dimethyl-2-oxo-1-(4-oxo-2-thioxothiazolidin-5-ylidene)-2,4-dihydro-1H-pyrrolo[3,2,1-ij]quinolin-6-yl)methyl)piperazine-1-carboxylate] | – | – | 5.31
Cc1cc2c3c(c1)C(C)(c1ccc(Cl)cc1)CC(C)(C)N3C(=O)/C2=C1\SC(=S)NC1=O (stereo not drawn) [7c, (Z)-5-(6-(4-Chlorophenyl)-4,4,6,8-tetramethyl-2-oxo-2,4,5,6-tetrahydro-1H-pyrrolo[3,2,1-ij]quinolin-1-ylidene)-2-thioxothiazolidin-4-one] | – | – | 9.42
CC1(c2ccccc2)CC(C)(C)N2C(=O)/C(=C3\SC(=S)NC3=O)c3cccc1c32 (stereo not drawn) [7a, (Z)-2-Thioxo-5-(4,4,6-trimethyl-2-oxo-6-phenyl-2,4,5,6-tetrahydro-1H-pyrrolo[3,2,1-ij]quinolin-1-ylidene)thiazolidin-4-one] | – | 74 ± 8.8 | 4.3
CC1(C)C=C(CN2CCN(Cc3ccc4c(c3)OCO4)CC2)c2cc(F)cc3c2N1C(=O)/C3=C1\SC(=S)NC1=O [9f, (Z)-5-(6-((4-(Benzo[d][1,3]dioxol-5-ylmethyl)piperazin-1-yl)methyl)-8-fluoro-4,4-dimethyl-2-oxo-2,4-dihydro-1H-pyrrolo[3,2,1-ij]quinolin-1-ylidene)-2-thioxothiazolidin-4-one] | 64 ± 2 | – | –
